Assay results from patent US20080300147A1, “Detection and Treatment of Fibrotic Disorders” (priority 2004, published 2008).

Assays:
[1] = tested on: leiomyoma smooth muscle cells (LSMC); experiment: Realtime PCR mRNA expression in treated LSMC; type: cell-based, human
Procedure: (§1) Isolation and Culture of Leiomyoma and Myometrial Smooth Muscle Cells. […] Only untreated tissues were used for isolation of LSMC and MSMC. […] LSMC and MSMC were cultured in 6-well plates at an approximate density of 10^6 cells/well in DMEM-supplemented media containing 10% FBS. After reaching visual confluence, the cells were washed in serum-free media and incubated for 24 hrs under serum-free, phenol red-free condition (Chegini, N et al. Mol Hum Reprod, 2002, 8:1071-8).
(§2) Quantitative RealTime PCR. Realtime PCR was utilized for verification of 10 differentially expressed and regulated genes identified in leiomyoma and myometrium as well as LSMC and MSMC from untreated and GnRHa-treated cohorts. The selection of these genes was based not only on their expression values (up or downregulation), but classification and biological functions important to leiomyoma growth and regression, regulation by ovarian steroids, GnRHa and TGF-β. They are IL-11, CITED2, Nur77, EGR3, TGIF, TIEG, p27, p57, GAS-1 and GPRK5 representing cytokines, transcription factors, cell cycle regulators and signal transduction.
(§3) Determination of TGF-β1 on global gene expression in LSMC and MSMC. All the materials utilized for this study including isolation of leiomyoma and myometrial cells are identical to those described in detail above. To determine the effect of TGF-β1 on global gene expression in LSMC and MSMC, the cells were cultured in 6-well plates at approximate density of 10^6 cells/well in DMEM-supplemented media containing 10% FBS. […] The cells were then treated with 2.5 ng/ml of TGF-β1 (R & D System, Minneapolis, […].) for 2, 6 and 12 hours. […] The cells were washed and then treated with TGF-β1 (2.5 ng/ml) for 2 hours. Parallel experiments using untreated cells were used as controls including an additional control for TGF-β type II receptor antisense and sense experiments.
(§4) Total cellular RNA was isolated from LSMC- and MSMC-treated and untreated controls and subjected to microarray analysis. To maintain standard and allow for comparative analysis, the GeneChips used in this study were utilized, simultaneously processed and their gene expression values were subjected to global normalization and transformation. Following these unsupervised assessments the coefficient of variation was calculated for each probe set across all the chips used in this study, and the selected gene expression values of this study were independently subjected to supervised learning including R programming analysis and ANOVA with false discovery rate selected at p<0.001 (Moustakas, A. Immunol Lett, 2002, 82:85-91; Verrecchia, F. et al. J Biol Chem, 2001, 276:17058-17062). The genes identified in these cohorts were analyzed for functional annotation and visualized using Database for Annotation, Visualization, and Integrated Discovery (DAVID) software with integrated GoCharts. Following the analysis, we selected 12 of the differentially expressed and regulated genes, including 10 identified and validated in leiomyoma and myometrium from untreated and GnRHa-treated cohorts, as well as LSMC and MSMC treated in vitro with GnRHa, for validation in response to TGF-β-time dependent action using Realtime PCR. They include IL-11, EGR3, CITED2, TIEG, TGIF, Nur77, p27, p57, GAS-1 and GPRK5. In addition, the expression of Runx1 and Runx2, transcription factors that interact with TGF-β receptor signaling pathways (Zavadil, J. et al. Proc Natl Acad Sci USA, 2001, 98:6686-6691), was validated in LSMC and MSMC as well as in leiomyoma and myometrium from GnRHa-treated and untreated cohorts. Detail description of the materials and methods for Realtime PCR as well as data analysis is provided in Chegini, N. et al. J Soc Gynecol Investig, 2003, 10:161-71.
(§5) Isolation and Culture of Leiomyoma and Myometrial Smooth Muscle Cells. Leiomyoma and myometrial smooth muscle cells (LSMC and MSMC) were isolated and cultured as previously described (Chegini, N. et al. Mol Hum Reprod, 2002, 8:1071-1078). […]

[2] = tested on: myometrial smooth muscle cells (MSMC); experiment: Realtime PCR mRNA expression in treated MSMC; type: cell-based, human
Procedure: as §1, §2, §3, §4, §5

[3] = U0126 20 μM 2 hrs, then GnRHa 0.1 μM 2 hrs
[4] = U0126 20 μM 2 hrs, then TGF-β1 2.5 ng/ml 2 hrs
[5] = TGF-β1 2.5 ng/ml, 2, 6 and 12 hours
[6] = TGF-β1 2.5 ng/ml, 2, 6 and 12 hrs

Compound: N#CC(=C(/N)Sc1ccccc1N)/C(C#N)=C(\N)Sc1ccccc1N [U0126]
- GnRHa-mediated action on CCN2 expression in LSMC [1, 3]: altered
- GnRHa-mediated action on CCN3 expression in LSMC [1, 3]: altered
- GnRHa-mediated action on CCN4 expression in LSMC [1, 3]: altered
- GnRHa-mediated action on S100A4 expression in LSMC [1, 3]: altered
- GnRHa-mediated action on fibulin-1C expression in LSMC [1, 3]: altered
- expression of FMOD in LSMC treated with GnRHa ([1]; U0126 20 μM 2 hrs, then GnRHa 2 hrs, compared to U0126-treated cells): increased
- TGF-β-mediated CCN4 expression in LSMC [1, 4]: inhibited
- TGF-β-mediated S100A4 expression in LSMC [1, 4]: inhibited
- TGF-β-mediated action on CCN2 in LSMC [1, 4]: limited effect
- TGF-β-mediated action on FMOD in LSMC [1, 4]: increased
- TGF-β-mediated fibulin-1C expression in LSMC [1, 4]: inhibited
- basal CCN2 mRNA expression in LSMC ([1]; U0126 20 μM pretreatment 2 hrs): altered
- basal CCN3 mRNA expression in LSMC ([1]; U0126 20 μM pretreatment 2 hrs): altered
- basal CCN4 mRNA expression in LSMC ([1]; U0126 20 μM pretreatment 2 hrs): altered
- basal S100A4 mRNA expression in LSMC ([1]; U0126 20 μM pretreatment 2 hrs): altered
- basal expression of FMOD in LSMC ([1]; U0126 20 μM pretreatment 2 hrs): increased
- basal fibulin-1C mRNA expression in LSMC ([1]; U0126 20 μM pretreatment 2 hrs): altered
- GnRHa-mediated action on CCN2 expression in MSMC [2, 3]: altered
- GnRHa-mediated action on CCN3 expression in MSMC [2, 3]: altered
- GnRHa-mediated action on CCN4 expression in MSMC [2, 3]: altered
- GnRHa-mediated action on S100A4 expression in MSMC [2, 3]: altered
- GnRHa-mediated action on fibulin-1C expression in MSMC [2, 3]: altered
- expression of FMOD in MSMC treated with GnRHa ([2]; U0126 20 μM 2 hrs, then GnRHa 2 hrs, compared to untreated control): increased
- TGF-β-mediated CCN3 expression in MSMC [2, 4]: inhibited
- TGF-β-mediated CCN4 expression in MSMC [2, 4]: inhibited
- TGF-β-mediated S100A4 expression in MSMC [2, 4]: inhibited
- TGF-β-mediated action on CCN2 in MSMC [2, 4]: limited effect
- TGF-β-mediated action on FMOD in MSMC [2, 4]: inhibiting
- TGF-β-mediated fibulin-1C expression in MSMC [2, 4]: inhibited
- basal CCN2 mRNA expression in MSMC ([2]; U0126 20 μM pretreatment 2 hrs): altered
- basal CCN3 mRNA expression in MSMC ([2]; U0126 20 μM pretreatment 2 hrs): altered
- basal CCN4 mRNA expression in MSMC ([2]; U0126 20 μM pretreatment 2 hrs): altered
- basal S100A4 mRNA expression in MSMC ([2]; U0126 20 μM pretreatment 2 hrs): altered
- basal expression of FMOD in MSMC ([2]; U0126 20 μM pretreatment 2 hrs): increased
- basal fibulin-1C mRNA expression in MSMC ([2]; U0126 20 μM pretreatment 2 hrs): altered

Compound: TGF-β1: human recombinant TGF-β1 (R&D System), used at 2.5 ng/ml
- Gas1 expression in LSMC [1, 5]: suppressed
- Nur77 expression in LSMC [1, 5]: transiently increased
- TGIF expression in LSMC [1, 5]: transiently increased
- TIEG expression in LSMC [1, 5]: transiently increased
- p27Kip1 expression in LSMC [1, 5]: suppressed
- p57Kip2 expression in LSMC [1, 5]: suppressed
- CCN3 mRNA expression in LSMC [1, 6]: inhibiting
- S100A4 mRNA expression in LSMC [1, 6]: moderately inhibiting
- fibulin-1C mRNA expression in LSMC [1, 6]: moderately inhibiting
- increase of CCN4 mRNA expression in LSMC [1, 6]: two fold
- FMOD expression in LSMC ([1]; TGF-β1 2.5 ng/ml, inhibition after 12 hrs): either no effect, or inhibited
- GAS1 expression in MSMC [2, 5]: suppression
- Nur77 expression in MSMC [2, 5]: transiently increased
- TGIF expression in MSMC [2, 5]: transiently increased
- TIEG expression in MSMC [2, 5]: transiently increased
- p27Kip1 expression in MSMC [2, 5]: biphasic fashion
- p57Kip2 expression in MSMC [2, 5]: biphasic fashion
- CCN3 mRNA expression in MSMC [2, 6]: inhibiting
- S100A4 mRNA expression in MSMC [2, 6]: moderately inhibiting
- fibulin-1C mRNA expression in MSMC [2, 6]: increasing
- increase of CCN4 mRNA expression in MSMC [2, 6]: two fold
- increase in FMOD expression in MSMC ([2]; TGF-β1 2.5 ng/ml, declined to control levels): 5-10 fold
- FMOD expression in MSMC ([2]; TGF-β1 2.5 ng/ml, gradual reduction to control levels after 12 hrs): significantly increased
